{
  "source": "patent US20190174748A1",
  "about": "“COMPOSITION FOR DELIVERY OF ACTIVE AGENTS TO AN ANIMAL” (priority 2015, published 2019)",
  "molecules": {"B1": {"name": "ovalbumin (protein, UniProt P01012 2-386, looked up)", "Ovalbumin": "GSIGAASMEFCFDVFKELKVHHANENIFYCPIAIMSALAMVYLGAKDSTRTQINKVVRFDKLPGFGDSIEAQCGTSVNVHSSLRDILNQITKPNDVYSFSLASRLYAEERYPILPEYLQCVKELYRGGLEPINFQTAADQARELINSWVESQTNGIIRNVLQPSSVDSQTAMVLVNAIVFKGLWEKAFKDEDTQAMPFRVTEQESKPVQMMYQIGLFRVASMASEKMKILELPFASGTMSMLVLLPDEVSGLEQLESIINFEKLTEWTSSNVMEERKIKVYLPRMKMEEKYNLTSVLMAMGITDVFSSSANLSGISSAESLKISQAVHAAHAEINEAGREVVGSAEAGVDAASVSEEFRADHPFLFCIKHIATNAVLFFGRCVSP", "notes": "ovalbumin, model vaccine / protein antigen, unprotected"}},
  "key": {"rats": {"system": "rats", "details": "250-500 g rats, baits at 4% Warfarin activity", "text": "Experimental Methods: 250-500 g rats are used. Rats are fed ad libitum. Each experimental group is housed in a separate cage.\nThe feed intake and kill effect on the rats are monitored."}, "BALB/C mice [1]": {"system": "BALB/C mice", "details": "baits at 4% Warfarin activity", "text": "Experimental Methods: Ten-twelve week old female BALB/C mice are used. Mice are fed ad libitum. Each experimental group is housed in a separate cage.\nThe feed intake and kill effect on the mice are monitored."}, "Rodents": {"system": "Rodents", "details": "rodents ingesting baits; cited from earlier work"}, "BALB/C mice [2]": {"system": "BALB/C mice", "assay": "Oral administration of OVA composition to mice: OVA specific IgG, IgA (ELISA) and ASC", "type": "in vivo", "details": "mice inoculated at 0 and 3 weeks, sampled at week 4", "experimental": "Ovalbumin is orally administered to mice to test the efficacy of the inventive compositions in inducing an immune response.\nOvalbumin composition: Ovalbumin (1 mg/g of ovalbumin, Sigma, St. Louis, Mo.,) is incorporated into the inventive composition as described in Example 5. Three groups of 4 mice each are inoculated as follows: 1) ovalbumin (OVA) in the composition, administered orally, 2) OVA solution, administered subcutaneously (SC), 3) antigen free composition administered orally. Mice are inoculated at 0 and 3 weeks. Each dose administers a total 100 mg of dry composition mixed with corn oil at a ratio of 1:2 w/w of dry composition/oil, coated onto feed pellets. At week 4 each mouse is euthanized and serum and spleen cells are harvested.\nImmunological assays: Serum is assayed for IgG and IgA by ELISA. ELISA is performed using OVA absorbed to polystyrene plates. Samples are placed in wells in triplicate at a 1:25 dilution for serum. Goat anti-mouse antibody conjugated with horse radish peroxidase is used, followed by an orthophenylenediamine substrate (Sigma, St. Louis, Mo., U.S.A.). Optical density of each well is determined by placing the plate in a microtiter plate spectrophotometer and reading the plate at 490 nm. Spleen cells are tested for antibody secreting cells (ASC) specific for OVA, using techniques described previously."}, "[3]": {"assay": "Degradation of unprotected OVA in simulated gastric fluid with 0.08% pepsin, pH 2", "type": "in vitro ADME", "details": "pH 2, 37° C.", "experimental": "Western Blot: the compositions were lysed with RIPA buffer as described above, and a calculated amount equivalent to 12 μg of protein per sample was loaded on a 10% SDS-polyacrylamide gradient gel (SDS-PAGE, Bio-Rad, Hercules, Calif.). Proteins were transferred onto a PVDF membrane (Bio-Rad) and blocked for 1 h with 5% non-fat milk in PBS containing 0.5% Tween-20 (PBS-T). Blots were incubated with an appropriate primary antibody at 1:5000 dilutions for 1 h at room temperature. After washing with PBS-T (3×10 mL, 5 min. each), the membranes were incubated with an appropriate HRP-conjugated secondary antibody (EMD Millipore Corporation, Billerica, Mass., USA) at 1:5000 dilution for 1 h. After washing with PBS-T (3×10 mL, 5 min. each), chemiluminescent films were developed with an ECL substrate (Amsheram Biosciences).\nTo evaluate the loss of activity of a protein antigen following a typical gastric exposure, non-encapsulated OVA (10 mg) was incubated in 10 ml simulated gastric fluid containing 0.08% pepsin at pH-2 for 2 h at 37° C. on a shaker. Medium was withdrawn at 15 min, 30 min, 60 min and 120 min incubation times, and the amount of residual OVA was analyzed using Western Blot analysis as described above."}},
  "data": [
    {"molecule": "CC(=O)CC(c1ccccc1)c1c(O)c2ccccc2oc1=O", "note": "(stereo not shown) [Warfarin]", "values": [
      {"measurement": "kill effect after 8 h from feeding", "setting": "rats", "value": "all group 2 rats remain alive"},
      {"measurement": "kill effect after 8 h from feeding", "setting": "BALB/C mice [1]", "value": "all group 2 mice remain alive"},
      {"measurement": "time to become unconscious", "setting": "Rodents", "value": "1 to 2", "unit": "h"},
      {"measurement": "time to obvious symptoms of poisoning", "setting": "Rodents", "value": "15 to 30", "unit": "min"},
      {"measurement": "time to recovery after sub lethal amount", "setting": "Rodents", "value": "≤ 8", "unit": "h"}
    ]},
    {"molecule": "ovalbumin [non-encapsulated OVA, ovalbumin, model vaccine / protein antigen, unprotected]", "values": [
      {"measurement": "OVA specific serum IgA, IgG and ASC secreting cells", "setting": "BALB/C mice [2]", "value": "equally increased"}
    ]},
    {"molecule": "B1", "values": [
      {"measurement": "Remaining activity (%)", "setting": "[3]; 15 min in simulated gastric fluid, relative to pre-exposure activity", "value": 61, "unit": "%"},
      {"measurement": "Remaining activity (%)", "setting": "[3]; 30 min in simulated gastric fluid", "value": 55, "unit": "%"},
      {"measurement": "Remaining activity (%)", "setting": "[3]; 60 min in simulated gastric fluid", "value": 38, "unit": "%"},
      {"measurement": "Remaining activity (%)", "setting": "[3]; 120 min in simulated gastric fluid", "value": 2, "unit": "%"}
    ]}
  ]
}
